Columns and labels:
Assay type in all cases: biochemical
HDAC 3 [1] = target: T1, HDAC 3 (Homo sapiens, UniProt O15379); assay: Fluorescence-based HDAC isoform assay with electrophoretic separation, HDAC 3 (coexpressed with SMRT fragment); settings: HDAC3 coexpressed with SMRT fragment (residues 395-489), 1 μM FAM-labeled acetylated peptide, 17 h at 25° C.
Protocol: (§1) The inhibitory effects of the compounds of Examples 7 and 9 above on HDAC activity were determined using a fluorescence-based assay with electrophoretic separation of substrate and product carried out using a microfluidic system followed by quantitation of fluorescence intensity in the substrate and product peaks.
(§2) The assays were performed using isolated HDAC isoforms that had been expressed as 6×His-tagged fusion proteins in a baculovirus expression system in Sf9 cells. HDACs 1, 2, 3, 6, and 8 were expressed as full length fusion proteins. For HDAC-4 and 7 only catalytic domains were expressed (HDAC-4 CAT and HDAC-7 CAT). The HDAC10 fusion protein was expressed as a carboxy-terminal deletion of 38 amino acids (residues 632-669). HDAC3 was coexpressed with a fragment of the SMRT gene (residues 395-489) to generate enzymatically active protein. Purified proteins were incubated with 1 μM carboxyfluorescein (FAM)-labeled acetylated peptide substrate and test compound for 17 h at 25° C. in HDAC assay buffer containing 100 mM HEPES (pH 7.5), 25 mM KCl, 0.1% BSA, and 0.01% Triton X-100. […] Substrate and product were separated electrophoretically using a Caliper LabChip 3000 system with blue laser excitation and green fluorescence detection (CCD2). The fluorescence intensity in the substrate and product peaks was determined using the Well Analyzer software on the Caliper system. […]

HDAC 4-CAT = target: T2, HDAC 4-CAT (Homo sapiens, UniProt P56524); assay: Fluorescence-based HDAC isoform assay with electrophoretic separation, HDAC 4-CAT; settings: catalytic domain only, 1 μM FAM-labeled acetylated peptide, 17 h at 25° C.
T2 construct: For HDAC-4 and 7 only catalytic domains were expressed (HDAC-4 CAT and HDAC-7 CAT); 6xHis; made in house; host or cells: Sf9 cells (baculovirus)
T2 sequence (P56524 655-1084 limits assumed): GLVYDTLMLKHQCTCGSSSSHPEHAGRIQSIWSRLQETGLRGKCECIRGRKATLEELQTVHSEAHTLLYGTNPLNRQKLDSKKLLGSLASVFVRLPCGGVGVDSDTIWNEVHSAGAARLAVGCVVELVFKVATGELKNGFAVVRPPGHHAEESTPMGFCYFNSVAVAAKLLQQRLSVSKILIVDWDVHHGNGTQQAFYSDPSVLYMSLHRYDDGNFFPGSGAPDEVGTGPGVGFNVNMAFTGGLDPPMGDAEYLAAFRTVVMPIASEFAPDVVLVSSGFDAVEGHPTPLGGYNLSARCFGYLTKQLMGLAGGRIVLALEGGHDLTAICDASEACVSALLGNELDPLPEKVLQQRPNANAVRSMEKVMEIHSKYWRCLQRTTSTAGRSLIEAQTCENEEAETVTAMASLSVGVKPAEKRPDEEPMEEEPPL
Protocol: as §1, §2

HDAC 3 [2] = target: T1, HDAC 3; assay: Caliper HDAC inhibitor profiling assay (microfluidic mobility-shift), HDAC 3; settings: 1 hour at room temperature, read-out: IC50 (μM) HDAC3
Protocol: The activity of the compounds of the invention against HDAC 3 (Class I) and HDAC 6 (Class II) can be determined using the Caliper Life Sciences HDAC inhibitor profiling assay, which utilises microfluidic mobility-shift detection.
Reaction buffer: 25 mM Tris/Cl, pH 8.0, 137 mM NaCl, 2.7 mM KCl, 1 mM MgCl2, 0.1 mg/ml BSA (fatty acid free).
Stop Buffer: 100 mM HEPES, pH 7.5, 10 mM EDTA, 0.04% Brij-35, 0.25% CR-3, and 2.5 μM Trichostatin A.
Stopped reactions were assembled in microtiter plate wells by adding 1 μL of the inhibitor compound in DMSO, 15 μL 2× Enzyme, and 15 μL 2× peptide. The reactions were incubated for 1 hour at room temperature, stopped with the addition of 45 μL Stop Solution, and read on the LabChip EZ Reader®. The curves were fit with sigmoidal dose response algorithm using GraphPad Prism.

HDAC 1 = target: T3, HDAC 1 (Homo sapiens, UniProt Q13547); assay: Fluorescence-based HDAC isoform assay with electrophoretic separation, HDAC 1; settings: isolated 6×His-tagged isoform, 1 μM FAM-labeled acetylated peptide, 17 h at 25° C.
T3 construct: HDACs 1, 2, 3, 6, and 8 were expressed as full length fusion proteins; 6xHis; made in house; host or cells: Sf9 cells (baculovirus)
T3 sequence (Q13547 whole entry, species assumed, the tested form may be a part, canonical isoform): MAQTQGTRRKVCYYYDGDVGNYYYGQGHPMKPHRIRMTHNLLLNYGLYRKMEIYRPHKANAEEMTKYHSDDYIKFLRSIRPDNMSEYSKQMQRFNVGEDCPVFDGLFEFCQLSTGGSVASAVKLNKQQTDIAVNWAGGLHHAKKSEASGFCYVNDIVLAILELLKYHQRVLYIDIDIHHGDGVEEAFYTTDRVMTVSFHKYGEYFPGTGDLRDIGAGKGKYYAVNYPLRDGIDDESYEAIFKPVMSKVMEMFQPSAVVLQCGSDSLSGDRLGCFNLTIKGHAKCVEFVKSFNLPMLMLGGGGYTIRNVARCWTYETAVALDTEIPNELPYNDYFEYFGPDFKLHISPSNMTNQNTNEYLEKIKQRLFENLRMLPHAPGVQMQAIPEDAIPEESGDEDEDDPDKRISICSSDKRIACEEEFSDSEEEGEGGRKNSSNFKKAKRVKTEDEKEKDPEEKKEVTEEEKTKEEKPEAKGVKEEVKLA
Protocol: as §1, §2

HDAC 10 = target: T4, HDAC 10 (Homo sapiens, UniProt Q969S8); assay: Fluorescence-based HDAC isoform assay with electrophoretic separation, HDAC 10; settings: carboxy-terminal deletion of 38 amino acids, 1 μM FAM-labeled acetylated peptide, 17 h at 25° C.
T4 construct: 6xHis; made in house; host or cells: Sf9 cells (baculovirus)
T4 sequence (Q969S8 1-631): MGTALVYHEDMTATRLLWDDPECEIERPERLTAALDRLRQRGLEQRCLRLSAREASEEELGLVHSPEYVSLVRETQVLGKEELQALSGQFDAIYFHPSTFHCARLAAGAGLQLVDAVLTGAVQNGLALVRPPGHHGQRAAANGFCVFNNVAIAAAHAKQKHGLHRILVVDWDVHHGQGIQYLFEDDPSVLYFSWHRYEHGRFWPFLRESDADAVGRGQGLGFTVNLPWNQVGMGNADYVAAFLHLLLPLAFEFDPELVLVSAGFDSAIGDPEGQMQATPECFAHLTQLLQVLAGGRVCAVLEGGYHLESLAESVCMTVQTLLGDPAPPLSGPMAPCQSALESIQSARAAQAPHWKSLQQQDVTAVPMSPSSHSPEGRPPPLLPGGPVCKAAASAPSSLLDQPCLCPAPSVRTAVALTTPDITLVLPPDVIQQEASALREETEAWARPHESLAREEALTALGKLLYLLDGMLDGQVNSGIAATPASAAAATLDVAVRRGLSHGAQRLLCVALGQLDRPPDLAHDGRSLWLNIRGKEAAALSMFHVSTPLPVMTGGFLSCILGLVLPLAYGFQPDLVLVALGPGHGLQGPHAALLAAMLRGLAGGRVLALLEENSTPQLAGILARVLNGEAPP
Protocol: as §1, §2

HDAC 2 = target: T5, HDAC 2 (Homo sapiens, UniProt Q92769); assay: Fluorescence-based HDAC isoform assay with electrophoretic separation, HDAC 2; settings: isolated 6×His-tagged isoform, 1 μM FAM-labeled acetylated peptide, 17 h at 25° C.
T5 construct: HDACs 1, 2, 3, 6, and 8 were expressed as full length fusion proteins; 6xHis; made in house; host or cells: Sf9 cells (baculovirus)
T5 sequence (Q92769 whole entry, species assumed, the tested form may be a part, canonical isoform): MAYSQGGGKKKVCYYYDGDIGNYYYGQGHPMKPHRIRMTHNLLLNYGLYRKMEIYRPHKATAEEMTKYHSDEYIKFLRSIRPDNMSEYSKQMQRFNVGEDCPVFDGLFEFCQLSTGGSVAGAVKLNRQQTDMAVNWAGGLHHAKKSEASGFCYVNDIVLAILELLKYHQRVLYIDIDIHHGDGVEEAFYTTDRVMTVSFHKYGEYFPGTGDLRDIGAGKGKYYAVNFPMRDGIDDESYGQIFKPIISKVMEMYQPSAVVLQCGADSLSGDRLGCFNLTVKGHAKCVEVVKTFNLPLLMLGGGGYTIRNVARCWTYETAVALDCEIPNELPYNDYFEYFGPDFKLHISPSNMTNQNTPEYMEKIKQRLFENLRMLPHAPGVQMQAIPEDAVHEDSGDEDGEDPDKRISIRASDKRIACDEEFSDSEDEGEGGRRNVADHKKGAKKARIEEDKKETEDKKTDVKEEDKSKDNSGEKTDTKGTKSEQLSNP
Protocol: as §1, §2

T1 sequence (O15379 whole entry, species assumed, the tested form may be a part, canonical isoform): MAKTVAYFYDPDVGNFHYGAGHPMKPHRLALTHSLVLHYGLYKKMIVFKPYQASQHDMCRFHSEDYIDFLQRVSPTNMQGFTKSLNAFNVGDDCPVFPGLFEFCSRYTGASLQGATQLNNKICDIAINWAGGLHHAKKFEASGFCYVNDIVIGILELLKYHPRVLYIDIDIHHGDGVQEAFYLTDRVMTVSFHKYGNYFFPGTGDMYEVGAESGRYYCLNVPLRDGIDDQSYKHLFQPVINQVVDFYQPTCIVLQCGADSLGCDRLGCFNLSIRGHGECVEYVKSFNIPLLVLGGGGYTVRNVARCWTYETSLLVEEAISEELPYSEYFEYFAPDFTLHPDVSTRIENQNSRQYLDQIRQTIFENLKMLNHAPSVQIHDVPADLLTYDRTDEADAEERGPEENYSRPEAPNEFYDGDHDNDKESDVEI
T1 sequence (Q9Y618 395-489 partner limits assumed, species assumed): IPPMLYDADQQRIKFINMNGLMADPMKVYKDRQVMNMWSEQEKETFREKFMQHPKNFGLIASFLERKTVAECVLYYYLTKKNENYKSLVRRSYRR

| IC50 (HDAC 3 [1]) [nM] | IC50 (HDAC 4-CAT) [nM] | IC50 (HDAC 3 [2]) [µM] | IC50 (HDAC 1) [nM] | IC50 (HDAC 10) [nM] | IC50 (HDAC 2) [nM] | SMILES |
| --- | --- | --- | --- | --- | --- | --- |
| 28.7 | 9220 | 0.22 | 8700 | 8040 | 54.4 | C=C1CN(Cc2ccc(C(=O)Nc3ccccc3N)cc2)C(=O)c2ccccc21 [Example 7, N-(2-Aminophenyl)-4-[(4-methylene-1-oxo-3,4-dihydroisoquino-2(1H)-yl)methyl]benzamide] |
| 797 | > 30000 | 0.78 | > 30000 | > 30000 | 2110 | C=C1CN(Cc2ccc(C(=O)Nc3ccccc3N)cc2)C(CC(=O)O)c2ccccc21 (stereo not drawn) [Example 9, [2-(4-{[(2-Aminophenyl)amino]carbonyl}benzyl)-4-methylene-1,2,3,4-tetra hydroisoquinolin-1-yl]acetic acid] |

From patent US20140135327A1, “N- (2 -AMINOPHENYL) BENZAMIDE DERIVATIVES AS HISTONE DEACETYLASE INHIBITORS” (CANCER RESEARCH TECHNOLOGY LIMITED, priority 2011, published 2014)
